{"source": "patent US11912699B2", "about": "“Tau-protein targeting compounds and associated” (Arvinas Operations, Inc., priority 2019, dated 2024)", "data": [{"biological_target": "T1, Tau P301L (Homo sapiens, UniProt P10636, P618L)", "T1 construct": "expressed in transfected cells", "T1 sequence (P10636 1-441 isoform P10636-8 P301L)": "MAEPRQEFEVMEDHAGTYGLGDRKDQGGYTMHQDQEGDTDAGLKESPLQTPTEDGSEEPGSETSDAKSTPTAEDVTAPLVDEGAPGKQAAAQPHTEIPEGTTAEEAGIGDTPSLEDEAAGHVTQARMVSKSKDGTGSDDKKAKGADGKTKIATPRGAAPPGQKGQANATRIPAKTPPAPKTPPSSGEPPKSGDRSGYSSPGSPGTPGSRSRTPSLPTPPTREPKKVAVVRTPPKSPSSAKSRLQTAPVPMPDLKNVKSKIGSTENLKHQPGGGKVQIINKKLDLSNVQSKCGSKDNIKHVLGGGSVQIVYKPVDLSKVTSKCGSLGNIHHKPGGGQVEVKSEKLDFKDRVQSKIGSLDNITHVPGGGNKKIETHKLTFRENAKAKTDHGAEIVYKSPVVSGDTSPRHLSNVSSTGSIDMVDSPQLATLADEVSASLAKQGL", "assay": "In vitro tau degradation assay in CHOK1 Tau P301L cells (sarkosyl insoluble tau, WES)", "format": "cell-based", "conditions": "CHO-K1; CHOK1 Tau P301L cells; remaining tau in sarkosyl insoluble pellet; 48 hours with test compound at 1 μM, doxycycline removed for last 24 hours; relative to DMSO doxycycline control; read-out: Tau Protein Degradation effect at 1 μM", "method_in_brief": "(§1)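 T-Rex CHOK1 clone D1 with doxycycline-inducible (1 μg/ml) Tau P301L treated 48 h with compound at 1 μM, doxycycline removed for the final 24 h. Sarkosyl-insoluble tau quantified by WES capillary electrophoresis with Tau1 antibody, expressed relative to DMSO doxycycline control and binned as ≤50% or >50% remaining.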", "units": {"remaining activity at 1 µM": "%"}, "values": [{"smiles": "COc1ccc2nc(/C=C/C=C/c3ccc(OCCOCCOCCOCCOc4ccc5c(c4)C(=O)N(C4CCC(=O)NC4=O)C5=O)nc3)sc2c1", "note": "(stereo not drawn) [Compound 628, 2-(2,6-dioxopiperidin-3-yl)-5-(2-(2-(2-(2-((5-((1E,3E)-4-(6-methoxybenzo[d]thiazol-2-yl)buta-1,3-dien-1-yl)pyridin-2-yl)oxy)ethoxy)ethoxy)ethoxy)ethoxy) isoindoline-1,3-dione]", "remaining activity at 1 µM": "< 50"}, {"smiles": "O=C1CCC(N2C(=O)c3ccc(N4CCN(CCC5CCN(Cc6ncc(-c7ccc8c9cnccc9n(C(F)F)c8c7)cc6F)CC5)CC4)cc3C2=O)C(=O)N1", "note": "(stereo not drawn) [Compound 632, 5-(4-(2-(1-((5-(5-(difluoromethyl)-5H-pyrido[4,3-b]indol-7-yl)-3-fluoropyridin-2-yl)methyl)piperidin-4-yl)ethyl)piperazin-1-yl)-2-(2,6-dioxopiperidin-3-yl)isoindoline-1,3-dione]", "remaining activity at 1 µM": "< 50"}, {"smiles": "O=C1CCC(N2C(=O)c3ccc(N4CCC(CCN5CCN(C6CCN(c7ccc8c9cnccc9n(C(F)F)c8c7)CC6)CC5)CC4)cc3C2=O)C(=O)N1", "note": "(stereo not drawn) [Compound 633, 5-(4-(2-(4-(1-(5-(difluoromethyl)-5H-pyrido[4,3-b]indol-7-yl)piperidin-4-yl)piperazin-1-yl)ethyl)piperidin-1-yl)-2-(2,6-dioxopiperidin-3-yl)isoindoline-1,3-dione]", "remaining activity at 1 µM": "< 50"}, {"smiles": "CN1CCc2c([nH]c3cc(-c4cnc(N5CCC(CCN6CCN(c7ccc8c(c7)C(=O)N(C7CCC(=O)NC7=O)C8=O)CC6)CC5)c(F)c4)ccc23)C1", "note": "(stereo not drawn) [Compound 634, 2-(2,6-dioxopiperidin-3-yl)-5-(4-(2-(1-(3-fluoro-5-(2-methyl-2,3,4,9-tetrahydro-1H-pyrido[3,4-b]indol-7-yl)pyridin-2-yl)piperidin-4-yl)ethyl)piperazin-1-yl)isoindoline-1,3-dione]", "remaining activity at 1 µM": "< 50"}, {"smiles": "COc1cc(N2CCN(CCC3CCN(c4ncc(-c5ccc6c7cnccc7n(C(F)F)c6c5)cc4F)CC3)CC2)cc2c1C(=O)N(C1CCC(=O)NC1=O)C2=O", "note": "(stereo not drawn) [Compound 635, 6-(4-(2-(1-(5-(5-(difluoromethyl)-5H-pyrido[4,3-b]indol-7-yl)-3-fluoropyridin-2-yl)piperidin-4-yl)ethyl)piperazin-1-yl)-2-(2,6-dioxopiperidin-3-yl)-4-methoxyisoindoline-1,3-dione]", "remaining activity at 1 µM": "< 50"}, {"smiles": "O=C1CCC(N2C(=O)c3ccc(OCCC4CCN(C[C@H]5C[C@H](Oc6ncc(-c7ccc8c9cnccc9n(C(F)F)c8c7)cc6F)C5)CC4)cc3C2=O)C(=O)N1", "note": "(stereo partly drawn) [Compound 636, 5-(2-(1-(((1r,3r)-3-((5-(5-(difluoromethyl)-5H-pyrido[4,3-b]indol-7-yl)-3-fluoropyridin-2-yl)oxy)cyclobutyl)methyl)piperidin-4-yl)ethoxy)-2-(2,6-dioxopiperidin-3-yl)isoindoline-1,3-dione]", "remaining activity at 1 µM": "> 50"}, {"smiles": "CC(C)N(C1CCN(c2ncc(-c3ccc4c5cnccc5n(C(F)F)c4c3)cc2F)CC1)[C@H]1C[C@H](Oc2ccc3c(c2)C(=O)N(C2CCC(=O)NC2=O)C3=O)C1", "note": "(stereo partly drawn) [Compound 638]", "remaining activity at 1 µM": "< 50"}, {"smiles": "O=C1CCC(N2C(=O)c3cc(F)c(N4CCCN(CCC5CCN(c6ncc(-c7ccc8c9cnccc9n(C(F)F)c8c7)cc6F)CC5)CC4)cc3C2=O)C(=O)N1", "note": "(stereo not drawn) [Compound 639, 5-(4-(2-(1-(5-(5-(difluoromethyl)-5H-pyrido[4,3-b]indol-7-yl)-3-fluoropyridin-2-yl)piperidin-4-yl)ethyl)-1,4-diazepan-1-yl)-2-(2,6-dioxopiperidin-3-yl)-6-fluoroisoindoline-1,3-dione]", "remaining activity at 1 µM": "< 50"}, {"smiles": "O=C1CCC(N2C(=O)c3cc(F)c(N4CCC(CN5CC6(C5)CN(C[C@H]5C[C@H](Oc7ccc(-c8ccc9c%10cnccc%10n(C(F)F)c9c8)cn7)C5)C6)CC4)cc3C2=O)C(=O)N1", "note": "(stereo partly drawn) [Compound 640, 5-(4-((6-(((1r,3r)-3-((5-(5-(difluoromethyl)-5H-pyrido[4,3-b]indol-7-yl)pyridin-2-yl)oxy)cyclobutyl)methyl)-2,6-diazaspiro[3.3]heptan-2-yl)methyl)piperidin-1-yl)-2-(2,6-dioxopiperidin-3-yl)-6-fluoroisoindoline-1,3-dione]", "remaining activity at 1 µM": "< 50"}, {"smiles": "O=C1CCC(N2C(=O)c3cc(N4CCN(CCC5CCN(c6ncc(-c7ccc8c9cnccc9n(C(F)F)c8c7)cc6F)CC5)CC4)cc(C(F)F)c3C2=O)C(=O)N1", "note": "(stereo not drawn) [Compound 641, 4-(difluoromethyl)-6-(4-(2-(1-(5-(5-(difluoromethyl)-5H-pyrido[4,3-b]indol-7-yl)-3-fluoropyridin-2-yl)piperidin-4-yl)ethyl)piperazin-1-yl)-2-(2,6-dioxopiperidin-3-yl)isoindoline-1,3-dione]", "remaining activity at 1 µM": "< 50"}, {"smiles": "O=C1CCC(N2C(=O)c3cc(F)c(N4CC5(CN(CCC6CCN(c7ncc(-c8ccc9c%10cnccc%10n(C(F)F)c9c8)cc7F)CC6)C5)C4)cc3C2=O)C(=O)N1", "note": "(stereo not drawn) [Compound 642, 5-(6-(2-(1-(5-(5-(difluoromethyl)-5H-pyrido[4,3-b]indol-7-yl)-3-fluoropyridin-2-yl)piperidin-4-yl)ethyl)-2,6-diazaspiro[3.3]heptan-2-yl)-2-(2,6-dioxopiperidin-3-yl)-6-fluoroisoindoline-1,3-dione]", "remaining activity at 1 µM": "< 50"}, {"smiles": "O=C1CCC(N2C(=O)c3cc(F)c(OCCN4CCC(O[C@H]5C[C@@H](N6CCC(c7ccc8c9cnccc9n(C(F)F)c8c7)CC6)C5)CC4)cc3C2=O)C(=O)N1", "note": "(stereo partly drawn) [Compound 644]", "remaining activity at 1 µM": "< 50"}, {"smiles": "O=C1CCC(N2C(=O)c3cc(F)c(N4CCN(CCC5CCN(c6ncc(-c7c(F)cc8c9cnccc9n(CC(F)(F)F)c8c7F)cn6)CC5)CC4)cc3C2=O)C(=O)N1", "note": "(stereo not drawn) [Compound 645, 5-(4-(2-(1-(5-(6,8-difluoro-5-(2,2,2-trifluoroethyl)-5H-pyrido[4,3-b]indol-7-yl)pyrimidin-2-yl)piperidin-4-yl)ethyl)piperazin-1-yl)-2-(2,6-dioxopiperidin-3-yl)-6-fluoroisoindoline-1,3-dione]", "remaining activity at 1 µM": "< 50"}, {"smiles": "O=C1CCC(N2C(=O)c3cc(F)c(OCCN4CC5(C4)CN(C[C@H]4C[C@H](Oc6ncc(-c7ccc8c9cnccc9n(C(F)F)c8c7)cc6F)C4)C5)cc3C2=O)C(=O)N1", "note": "(stereo partly drawn) [Compound 646, 5-(2-(6-(((1r,3r)-3-((5-(5-(difluoromethyl)-5H-pyrido[4,3-b]indol-7-yl)-3-fluoropyridin-2-yl)oxy)cyclobutyl)methyl)-2,6-diazaspiro[3.3]heptan-2-yl)ethoxy)-2-(2,6-dioxopiperidin-3-yl)-6-fluoroisoindoline-1,3-dione]", "remaining activity at 1 µM": "< 50"}, {"smiles": "CN1CCc2[nH]c3cc(-c4cnc(N5CCC(CCN6CCN(c7cc8c(cc7F)C(=O)N(C7CCC(=O)NC7=O)C8=O)CC6)CC5)c(F)c4)ccc3c2C1", "note": "(stereo not drawn) [Compound 647, 2-(2,6-dioxopiperidin-3-yl)-5-fluoro-6-(4-(2-(1-(3-fluoro-5-(2-methyl-2,3,4,5-tetrahydro-1H-pyrido[4,3-b]indol-7-yl)pyridin-2-yl)piperidin-4-yl)ethyl)piperazin-1-yl)isoindoline-1,3-dione]", "remaining activity at 1 µM": "> 50"}]}, {"biological_target": "T1, Tau P301L", "assay": "In vitro tau degradation assay in CHOK1 Tau P301L cells (sarkosyl insoluble tau, WES)", "format": "cell-based", "conditions": "CHO-K1; remaining tau protein in sarkosyl insoluble pellet; CHOK1 Tau P301L cells treated 48 hours with test compound at 1 μM, doxycycline removed for the last 24 hours; relative to DMSO doxycycline control; read-out: Tau Protein Degradation effect at 1 μM", "method_in_brief": "as §1", "units": {"remaining activity at 1 µM": "%"}, "values": [{"smiles": "O=C1CCC(N2C(=O)c3ccc(N4CCN(CCC5CCN(c6ncc(-c7ccc8c9cncc(F)c9n(C(F)F)c8c7)cc6F)CC5)CC4)cc3C2=O)C(=O)N1", "note": "(stereo not drawn) [Compound 652, 5-(4-(2-(1-(5-(5-(difluoromethyl)-4-fluoro-5H-pyrido[4,3-b]indol-7-yl)-3-fluoropyridin-2-yl)piperidin-4-yl)ethyl)piperazin-1-yl)-2-(2,6-dioxopiperidin-3-yl)isoindoline-1,3-dione]", "remaining activity at 1 µM": "< 50"}, {"smiles": "CN(C)c1cccc2cnc(-n3ccc4cc(N5CCC(CCN6CCN(c7cc8c(cc7F)C(=O)N(C7CCC(=O)NC7=O)C8=O)CC6)CC5)ncc43)cc12", "note": "(stereo not drawn) [Compound 653, 5-(4-(2-(1-(1-(5-(dimethylamino)isoquinolin-3-yl)-1H-pyrrolo[2,3-c]pyridin-5-yl)piperidin-4-yl)ethyl)piperazin-1-yl)-2-(2,6-dioxopiperidin-3-yl)-6-fluoroisoindoline-1,3-dione]", "remaining activity at 1 µM": "< 50"}, {"smiles": "O=C1CCC(N2C(=O)c3ccc(N4CCN(CCC5CCN(c6ccnc(Nc7ccc8ncccc8n7)c6)CC5)CC4)cc3C2=O)C(=O)N1", "note": "(stereo not drawn) [Compound 656, 5-(4-(2-(1-(2-((1,5-naphthyridin-2-yl)amino)pyridin-4-yl)piperidin-4-yl)ethyl)piperazin-1-yl)-2-(2,6-dioxopiperidin-3-yl)isoindoline-1,3-dione]", "remaining activity at 1 µM": "< 50"}, {"smiles": "O=C1CCC(N2C(=O)c3ccc(N4CCN(CC5CCN(C[C@H]6C[C@H](Oc7ncc(-c8ccc9c%10cnccc%10n(C(F)F)c9c8)cc7F)C6)CC5)CC4)cc3C2=O)C(=O)N1", "note": "(stereo partly drawn) [Compound 667, 5-(4-((1-(((1r,3r)-3-((5-(5-(difluoromehtyl)-5H-pyrido[4,3-b]indol-7-yl)-3-fluoropyridin-2-yl)oxy)cyclobutyl)methyl)piperidin-4-yl)methyl)piperazin-1-yl)-2-(2,6-dioxopiperidin-3-yl) isoindoline-1,3-dione]", "remaining activity at 1 µM": "< 50"}, {"smiles": "O=C1CCC(N2C(=O)c3ccc(N4CCN(CCC5CCN(c6ncc(-c7ccc8c9cnccc9n(CC(F)(F)F)c8n7)cc6F)CC5)CC4)cc3C2=O)C(=O)N1", "note": "(stereo not drawn) [Compound 673, 2-(2,6-dioxopiperidin-3-yl)-5-(4-(2-(1-(3-fluoro-5-(9-(2,2,2-trifluoroethyl)-9H-pyrrolo[2,3-b:4,5-c′]dipyridin-2-yl)pyridin-2-yl)piperidin-4-yl)ethyl)piperazin-1-yl)isoindoline-1,3-dione]", "remaining activity at 1 µM": "< 50"}, {"smiles": "O=C1CCC(N2C(=O)c3ccc(N4CCN(CCC5CCN(c6ncc(-c7ccc8c9cnccc9n(C(F)F)c8n7)cc6F)CC5)CC4)cc3C2=O)C(=O)N1", "note": "(stereo not drawn) [Compound 674, 5-(4-(2-(1-(5-(9-(difluoromethyl)-9H-pyrrolo[2,3-b:4,5-c′]dipyridin-2-yl)-3-fluoropyridin-2-yl)piperidin-4-yl)ethyl)piperazin-1-yl)-2-(2,6-dioxopiperidin-3-yl)isoindoline-1,3-dione]", "remaining activity at 1 µM": "< 50"}]}]}
